Measurements from US5276023A, “19-nor-steroid esters” (Roussel Uclaf, priority 1989, dated 1994).

What was measured:
Progesterone receptor = target: T1, Progesterone receptor (Oryctolagus cuniculus, UniProt P06186); assay: relative bond affinity for the progesterone receptor of rabbit's uterus; format: binding; details: for relative bond affinity (RBA), Progesterone 2H: 2 hours incubation at 0° C.; for relative bond affinity (RBA), Progesterone 2H / relative bond affinity (RBA), Progesterone 24H: tritiated R 5020 5 nM, RBA=100 (CH)/(CX), reference cold progesterone; for relative bond affinity (RBA), Progesterone 24H: 24 hours incubation at 0° C.; for antiprogesterone activity: conclusion in words from the receptor binding study
T1 construct: from tissue; host or cells: uterus cytosol (105,000 g supernatant) of impuberal female rabbits treated with estradiol
T1 sequence (P06186 1-930): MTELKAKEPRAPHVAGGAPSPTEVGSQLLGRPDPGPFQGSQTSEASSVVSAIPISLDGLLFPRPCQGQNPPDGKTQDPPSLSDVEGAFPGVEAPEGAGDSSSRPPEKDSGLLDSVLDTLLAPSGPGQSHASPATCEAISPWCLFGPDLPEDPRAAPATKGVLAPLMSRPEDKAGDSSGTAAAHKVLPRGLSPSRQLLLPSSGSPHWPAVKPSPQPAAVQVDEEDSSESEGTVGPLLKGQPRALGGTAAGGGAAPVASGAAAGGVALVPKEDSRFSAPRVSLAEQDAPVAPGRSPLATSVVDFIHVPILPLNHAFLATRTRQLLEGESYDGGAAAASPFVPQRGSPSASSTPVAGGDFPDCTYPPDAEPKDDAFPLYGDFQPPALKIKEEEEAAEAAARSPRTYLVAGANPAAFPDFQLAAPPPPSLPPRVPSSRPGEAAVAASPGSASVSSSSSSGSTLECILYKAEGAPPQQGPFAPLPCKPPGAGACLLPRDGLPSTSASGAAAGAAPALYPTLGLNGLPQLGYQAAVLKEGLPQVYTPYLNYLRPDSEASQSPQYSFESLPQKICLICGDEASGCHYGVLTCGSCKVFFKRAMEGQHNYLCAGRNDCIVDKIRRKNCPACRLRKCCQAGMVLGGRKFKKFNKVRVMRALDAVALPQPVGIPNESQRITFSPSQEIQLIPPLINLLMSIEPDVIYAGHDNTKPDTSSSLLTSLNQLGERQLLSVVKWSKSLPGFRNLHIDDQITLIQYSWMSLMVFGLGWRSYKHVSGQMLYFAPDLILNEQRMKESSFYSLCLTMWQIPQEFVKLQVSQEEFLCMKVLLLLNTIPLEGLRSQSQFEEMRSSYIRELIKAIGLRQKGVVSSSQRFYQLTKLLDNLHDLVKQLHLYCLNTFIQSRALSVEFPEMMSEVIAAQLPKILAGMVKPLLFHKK
Method: (§1) 1) Measurement of the relative bond affinity for the receptors of steroid hormones:
Progesterone receptor of rabbit's uterus:
Impuberal female rabbits weighing about 1 kg received a cutaneous application of 25 ug of estradiol and five days after this treatment, the animals were killed and the uteruses were removed, weighed and homogenized at 0° C. using a Potter teflon-flask in a (TS) 10 mM Tris, 0.25M saccharose, HCl pH 7.4 buffer (1 g of tissue per 50 ml of TS). The homogenate was then ultra-centrifuged (105,000 g×90 mn) at 0° C. […] The concentration of bonded tritiated R 5020 (B) was then measured in each incubate by the technique of adsorption with carbon-dextran.
(§2) Calculation of the relative bond affinity:
(§3) The calculation of the relative bond affinity (RBA) was identical for all receptors. The following two curves were drawn: the percentage of bonded tritiated hormone B/T as a function of the logarithm of the concentration of the cold reference hormone and B/T as a function of the logarithm of the concentration of the cold product under test. The straight line of the equation:
(§4) B max=Percentage of bonded tritiated hormone for an incubation of this tritiated hormone at the concentration (T).
(§5) B min=Percentage of bonded tritiated hormone for an incubation of this tritiated hormone at the concentration (T) in the presence of a great excess of cold hormone (2500×10^-9 M).
(§6) The intersections of the straight line I50 and the curves allowed the evaluation of the concentrations of the cold reference hormone (CH) and of the cold product under test (CX) which inhibited by 50% the bonding of the tritiated hormone on the receptor. The relative bond affinity (RBA) of the product under test was determined by the equation RBA=100 (CH)/(CX)

Glucocorticoid receptor = target: T2, Glucocorticoid receptor (Rattus norvegicus, UniProt P06536); assay: relative bond affinity for the glucocorticoid receptor of rat's thymus; format: binding; details: tritiated dexamethasone 2.5 nM, RBA=100 (CH)/(CX), reference cold dexamethasone; for relative bond affinity (RBA), Glucocorticoid 4H: 4 hours incubation at 0° C.; for relative bond affinity (RBA), Glucocorticoid 24H: 24 hours incubation at 0° C.
T2 construct: The thymuses were removed and homogenized; from tissue; host or cells: thymus cytosol (105,000 g supernatant) of suprarenalectomized male rats
T2 sequence (P06536 1-795): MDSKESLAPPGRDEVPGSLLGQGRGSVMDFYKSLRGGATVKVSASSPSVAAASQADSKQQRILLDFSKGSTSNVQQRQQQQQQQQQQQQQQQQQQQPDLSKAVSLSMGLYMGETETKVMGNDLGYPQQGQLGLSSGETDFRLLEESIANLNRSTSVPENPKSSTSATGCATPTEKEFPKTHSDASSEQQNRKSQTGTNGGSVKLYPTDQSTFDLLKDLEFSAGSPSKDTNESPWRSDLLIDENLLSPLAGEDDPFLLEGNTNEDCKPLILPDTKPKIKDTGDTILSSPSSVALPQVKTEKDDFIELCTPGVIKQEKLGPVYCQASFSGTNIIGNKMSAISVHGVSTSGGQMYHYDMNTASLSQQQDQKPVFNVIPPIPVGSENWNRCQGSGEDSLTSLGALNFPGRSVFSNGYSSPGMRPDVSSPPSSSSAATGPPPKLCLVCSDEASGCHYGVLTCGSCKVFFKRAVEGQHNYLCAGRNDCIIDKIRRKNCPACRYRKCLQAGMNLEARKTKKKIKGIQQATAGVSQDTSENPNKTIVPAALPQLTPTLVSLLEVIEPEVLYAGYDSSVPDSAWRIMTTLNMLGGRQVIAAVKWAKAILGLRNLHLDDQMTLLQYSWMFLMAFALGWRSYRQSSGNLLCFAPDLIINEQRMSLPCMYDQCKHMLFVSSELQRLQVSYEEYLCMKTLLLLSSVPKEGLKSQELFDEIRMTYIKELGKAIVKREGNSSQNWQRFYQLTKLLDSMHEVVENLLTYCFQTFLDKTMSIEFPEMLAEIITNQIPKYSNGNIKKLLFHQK
Method: as §1
Glucocorticoid receptor of rat's thymus:
Male rats weighing 160 to 200 g were suprarenalectomized and 4 to 8 days after this removal, the animals were killed. The thymuses were removed and homogenized at 0° C. using a Potter teflon-flask in a (TSD) 10 Mm Tris, 0.25M saccharose, 2 mM dithiothreitol, HCl pH 7.4 buffer (1 g of tissue per 10 ml of TSD). The homogenate was then ultracentrifuged at 105,000 g×90 mn at 0° C. Aliquots of the supernatant "cytosol", were incubated at 0° C. for 4 hours and 24 hours with a constant concentration (T=2.5 nM) of tritiated dexamethasone in the presence of increasing concentrations (0-2,500 nM) of cold dexamethasone or of the cold product under test. The concentration of the bonded tritiated dexamethasone (B) was then measured in each incubate by the technique of adsorption with carbon-dextran.
as §2, §3, §4, §5, §6

Compound | relative bond affinity (RBA), Progesterone 2H (Progesterone receptor) | relative bond affinity (RBA), Progesterone 24H (Progesterone receptor) | antiprogesterone activity (Progesterone receptor) | relative bond affinity (RBA), Glucocorticoid 4H (Glucocorticoid receptor) | relative bond affinity (RBA), Glucocorticoid 24H (Glucocorticoid receptor) | relative bond affinity (RBA), Progesterone 24H (Progesterone receptor; listed as EX. 6) | relative bond affinity (RBA), Glucocorticoid 4H (Glucocorticoid receptor; listed as EX. 6) | relative bond affinity (RBA), Glucocorticoid 24H (Glucocorticoid receptor; listed as EX. 6) | relative bond affinity (RBA), Progesterone 24H (Progesterone receptor; listed as EX. 5) | relative bond affinity (RBA), Glucocorticoid 4H (Glucocorticoid receptor; listed as EX. 5) | relative bond affinity (RBA), Glucocorticoid 24H (Glucocorticoid receptor; listed as EX. 5)
CC#C[C@]1(OC(=O)CCC(=O)O)CC[C@H]2[C@@H]3CCC4=CC(=O)CCC4=C3[C@@H](c3ccc(SC)cc3)C[C@@]21C [Example 12, Sodium and 11β-[4-methylthio-phenyl]-17α-(1-propynyl)-Δ^4,9 estradien-3-one-17β-yl succinate] | 1,2 | 3,6 | good | 9,5 | 24 |  |  |  |  |  | 
CN(C)c1ccc([C@H]2C[C@@]3(C)[C@@H](CC[C@]3(C#CCl)OC(=O)CCC(=O)O)[C@@H]3CCC4=CC(=O)CCC4=C32)cc1 [Example 10, Sodium and 21-chloro-11β-[4-dimethylamino-phenyl]-19-nor-17α-Δ^4,9-pregnadien-3-one-20-yn-17β-yl succinate] | 3 | 13 | good | 37 | 77 |  |  |  |  |  | 
CN(C)c1ccc([C@H]2C[C@@]3(C)[C@@H](CC[C@@]3(O)C#CCOC(=O)CCC(=O)O)[C@@H]3CCC4=CC(=O)CCC4=C32)cc1 [Example 4, Sodium and 3-[11β-[4-dimethylamino-phenyl]-Δ^4,9-estradien-17β-ol-3-one-17α-yl]-2-propynyl succinate] | 14 | 26 |  | 31,5 | 27 |  |  |  |  |  | 
CC#C[C@]1(OC(=O)CCC(=O)O)CC[C@H]2[C@@H]3CCC4=CC(=O)CCC4=C3[C@@H](c3ccc(N(C)C)cc3)C[C@@]21C [Example 6, Sodium 11β-[4-dimethylamino-phenyl]17α-(1-propynyl)-Δ^4,9 - estradien-3-one-17β-yl succinate] | 2 |  |  |  |  | 6 | 26 | 54 |  |  | 
CN(C)c1ccc([C@H]2C[C@@]3(C)[C@@H](CC[C@@]3(O)/C=C\COC(=O)CCC(=O)O)[C@@H]3CCC4=CC(=O)CCC4=C32)cc1 [Example 2, Sodium (Z)-3-[11β-[4-dimethylamino-phenyl]-Δ^4,9-estradien-17β-ol-3-one-17α-yl]-2-propenyl succinate] | 21 | 88 |  | 62 | 48 |  |  |  |  |  | 
CC#C[C@]1(OC(=O)CCC(=O)O)CC[C@H]2[C@@H]3CCC4=CC(=O)CCC4=C3[C@@H](c3ccc(N(C)C)cc3)C[C@@]21C [Example 5, 11β-[4-dimethylamino-phenyl]-17-(1-propynyl)-Δ^4,9-estradien-3-one-17β-yl acid succinate] | 2 |  |  |  |  |  |  |  | 8 | 28 | 77
